Reference: patent US8012994B1 (priority 2006, dated 2011)
Structures can show the parent of a compound that is named as a salt.

What was measured:
Assay type in all cases: in vivo, human
[1] = system: sensorineural hearing loss caused by hyperbilirubinemia; experiment: Treatment for sensorineural hearing loss caused by hyperbilirubinemia
Protocol: Research was conducted on four patients (age 2 to 5 years) who had hyperbilirubinemia soon after birth. The hearing impairment was diagnosed when the children were examined and treated for hyperkinetic cerebral palsy. The children were not able to walk.
After the treatment, their hearing improved by 10-15 dB.

[2] = system: sensorineural hearing loss caused by birth injury; experiment: Treatment for sensorineural hearing loss caused by birth injury
Protocol: Research was conducted with 4 patients whose hearing loss was caused by birth injury. Two patients were twin boys […] and two patients […].
The twins had sensorineural hearing loss in both ears. […] The course was repeated in 1.5 months, and the third course was conducted in 3 months.
Treatment was then conducted according to the following pattern.
The courses were repeated every three months for three years. They received 8 and 10 courses respectively.

[3] = system: hearing loss caused by toxoplasmosis; experiment: Treatment for neuropathy of CN VIII: hearing loss caused by toxoplasmosis; details: patient
Protocol: This research involved observation of neuropathy in the vestibulocochlear nerve of 17 patients.
In two patients, the hearing loss was caused by toxoplasmosis. In one patient, inborn toxoplasmosis was diagnosed. The other patient developed toxoplasmosis from an infected cat.
The second course was conducted in three months. After four courses of treatment, their hearing improved by 25 dB.
After 5 courses of treatment, their hearing improved by 30 dB.

[4] = system: sensorineural hearing loss caused by Usher syndrome; experiment: Treatment for sensorineural hearing loss caused by Usher syndrome
Protocol: A group of 4 children of 5-6 years old with Usher's syndrome were studied. They manifested profound hearing impairment of 65-75 dB alongside progressive loss of vision due to retinitis pigmentosa. These children had been previously refused treatment on the account of their disease being genetic.
In 1.5 months there was an improvement in hearing by 5 dB. […] The third course was conducted in three months according to the same pattern. After that the hearing improved by 10-15 dB.
PIRIBEDIL® is a vasodilative drug used for treating vision and hearing disorders. Applicant observed that the hearing was improved by 5-10 dB. The patients were recommended to have a follow up treatment every 6 months according to the same pattern.

[5] = system: neurinomas of cerebellopontine angle; experiment: Treatment for neurinomas of cerebellopontine angle
Source text: Neurinomas of the cerebropontine angle—7 patients (2 patients and 5 people from 35 to 45 years of age).
In all 7 patients, the tumor was diagnosed late and was of a considerable size. In spite of the fact that all of them had consulted doctors, they were correctly diagnosed only after the appearance of the symptoms of damage to the facial nerve, ataxy, and complete hearing loss. Some of the patients underwent neurosurgery, including partial removal of the tumor followed by chemo- and radio-therapy. The patients manifested paralysis of the facial nerve, optic atrophy, and tinnitus, dizziness and paresis or hemisyndrom of different degrees.
After the operations, some of the patients had severe complications. […] Disorders of differentiation of words, especially in noisy environments. Some patients manifested convulsions and severe headaches. The encephalogram registered readiness for convulsions. Such patients initially underwent anticonvulsant therapy with CARBAMAZEPINE® 100 mg two times a day.
The course of treatment was repeated every 3-6 months. […] The patients started to differentiate shapes of objects, which helped them to orient in the surroundings and to come to the clinic without a guide.

[6] = system: meningiomas; experiment: Treatment of patients with meningiomas; details: 1.25 mg once a day, three courses
Protocol: Applicant observed two patients with meningiomas. Their tumors were of a considerable size. These patients had undergone surgery, which was conducted in two stages, and was followed by chemo- and radiation therapy. These patients were practically blind, and had bilateral optic atrophy, their hearing function was impaired by 30-40 dB, they were not able to differentiate words in noisy environments. They also manifested convulsive attacks up to 15 times a day. They went through the anticonvulsant therapy, after which their convulsions occurred only for 2 times a month. […] In a month and a half, the treatment was conducted according to the following pattern. 1.25 mg once a day for 7 days, followed by a 5 day break. […] This course was repeated in 3 months. The third course was conducted in 6 months. […] These improvements satisfied the patients and no further treatment was conducted.

[7] = system: minimal hearing loss; experiment: Treatment for minimal hearing loss
Source text: A group of patients consisting of 56 children was selected. 29 children—4 years of age and 27 children—5-6 years of age.
Minimal hearing disorders were discovered when these children were investigated for speech development delay.
The course of treatment was repeated in three months. Depending on the degree of the impairment and its cause, the patients received from 3 to 8 courses of treatment.

[8] = system: sensorineural hearing loss of vascular genesis; experiment: Treatment for sensorineural hearing loss of vascular genesis
Protocol: A group of 24 patients at the age of 50-65 were treated for sensorineural hearing loss. […] After a 7-10 days break, the course was repeated. […] The hearing in one ear improved by 5-10 dB.
So the second intake of the drug at night was withdrawn. […] After that, they refused to continue the treatment for the lack of desired effect.
Three courses of treatment were conducted. […] Then, the patients terminated the treatment because of its high cost.

[9] = system: blind mute and deaf children; experiment: galanthamine hydrobromide injections in blind mute and deaf children; details: one of 3 patients, 7-9 years old; 0.1 ml of 0.5% solution per year of life, 15-20 injections
Protocol: 25 years ago, applicant conducted a study of a small group of blind mute and deaf children (3 patients) at the age of 7-9 years old. There was an attempt to restore their visual function using galanthamine hydrobromide solution at the dosage of 0.1 ml of 0.5% of galanthamine hydrobromide for each year of life. The course of treatment included 15-20 injections. […] This finding gave an impetus to conduct additional research into the restoration of auditory function using acetylholinesterase inhibitors in conjunction with laser stimulation.

[10] = after three courses, 0.625 mg once a day during 25 days
[11] = twin boys, three courses, 2.5 mg twice a day for 20 days
[12] = 7 patients, courses repeated every 3-6 months
[13] = 18 patients, 2.5 mg a day with vasodilating treatment, three courses

**Q.** What does the source list for `COc1cc2c(cc1OC)C(=O)C(CC1CCN(Cc3ccccc3)CC1)C2` (stereo not drawn) [ARICEPT®, donepezil hydrochloride]?
**A.** concentration [1, 10]: concentration improved; hyperkinesias [1, 10]: some decrease of hyperkinesias; hearing ([1]; four patients 2-5 years, after three courses, 0.625 mg once a day during 25 days): no improvement in hearing; hyperkinesia and walking ([1]; patient with profound hearing loss, after ten courses): Hyperkinesia decreased and the patient began to walk; hearing threshold ([1]; patient, threshold over 95 dB before, after ten courses): 90 dB; hearing improved by ([1]; two children, 10 courses, 0.625 mg twice a day for 25 days, three months break): 10-15 dB; hearing improved by, in one ear ([2]; each twin, further three courses 2.5 mg twice a day for 25 days, with PERIBEDIL 10 mg twice a day from the 4th course): 20-25 dB; hearing improved by ([2]; person, sensorineural hearing loss of 65 dB, 2.5 mg once a day for twenty days, 10 courses over three years): 10 dB; hearing improved by, in one ear ([2]; twin boys of 10 years, three courses, 2.5 mg twice a day for 20 days, hydrochloride): 10 dB; fatiguability [2, 11]: decreased fatiguability; speech [2, 11]: speech became more understandable; hearing improved by ([3]; 0.625 mg once a day during 20 days, after four courses): 25 dB; hearing improved by ([3]; 2.5 mg once a day for 20 days, after 5 courses): 30 dB; improvement in hearing ([4]; 4 children 5-6 years, loss 65-75 dB, 1.25 mg 2 times a day for 20 days, in 1.5 months): 5 dB; visual function ([4]; after the third course): improved visual function; hearing improved by ([4]; after the third course, 1.25 mg two times a day): 10-15 dB; hearing improved by ([4]; two patients, after six months, with PIRIBEDIL 5 mg two times a day): 5-10 dB; tinnitus [5, 12]: decrease of tinnitus; visual function [5, 12]: improvement in their visual function; effect of further courses ([5]; after 5-6 courses of treatment): no further improvement; side effects ([5]; dosage increased to 5 mg twice a day, with anticonvulsant therapy): headaches and sleep disturbances; side effects ([5]; dosage of 2.5 mg a day): didn't produce side effects; hearing ([6]; 2 patients, hearing impaired by 30-40 dB): improvement of hearing; speech ([6]; 2 patients, with anticonvulsant therapy): increased legibility of speech; vision ([6]; 2 practically blind patients): clear differentiation of the source of light; higher psychic functions ([7]; 56 children 4-6 years): improvement of higher psychic functions; most noticeable improvement of phonemic hearing and speech functions observed ([7]; 56 children 4-6 years, 1.25 mg once a day during 20 days): between the 3d and the 5th courses; hearing improved by ([7]; children with sensorineural hearing loss, 1.25 mg once a day during 20 days, 3 to 8 courses): 5-10 dB; children who manifested the increase in the intellect ([7]; starting from the 4th course, preliminary results): 85%; hearing ([8]; 6 patients, night intake withdrawn, after the fourth course): slight improvement of hearing; side effects ([8]; 6 patients, 2.5 mg twice a day): irritability and sleep disturbances; tinnitus ([8]; 18 of 24 patients 50-65 years, after the first course, 2.5 mg twice a day during 25 days): decrease of tinnitus; dizziness [8, 13]: decrease of dizziness; hearing [8, 13]: improved hearing in one ear; hearing in one ear improved by ([8]; after the first course, 2.5 mg twice a day during 25 days): 5-10 dB

**Q.** `COc1ccc2c3c1O[C@H]1C[C@@H](O)C=C[C@@]31CCN(C)C2` [galanthamine hydrobromide] was tested. Which auditory function [9] did it give?
**A.** minor improvement of auditory function
